The text below walks through data of patent US7932270B2 (Cytokinetics, Inc., priority 2006, dated 2011).

T1 sequence (P02607 2-151): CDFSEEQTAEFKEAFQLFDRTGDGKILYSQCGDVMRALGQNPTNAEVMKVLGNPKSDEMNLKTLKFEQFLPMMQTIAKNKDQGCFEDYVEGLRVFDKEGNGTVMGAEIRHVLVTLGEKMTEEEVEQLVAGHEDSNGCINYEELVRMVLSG
T1 sequence (P10587 84-789): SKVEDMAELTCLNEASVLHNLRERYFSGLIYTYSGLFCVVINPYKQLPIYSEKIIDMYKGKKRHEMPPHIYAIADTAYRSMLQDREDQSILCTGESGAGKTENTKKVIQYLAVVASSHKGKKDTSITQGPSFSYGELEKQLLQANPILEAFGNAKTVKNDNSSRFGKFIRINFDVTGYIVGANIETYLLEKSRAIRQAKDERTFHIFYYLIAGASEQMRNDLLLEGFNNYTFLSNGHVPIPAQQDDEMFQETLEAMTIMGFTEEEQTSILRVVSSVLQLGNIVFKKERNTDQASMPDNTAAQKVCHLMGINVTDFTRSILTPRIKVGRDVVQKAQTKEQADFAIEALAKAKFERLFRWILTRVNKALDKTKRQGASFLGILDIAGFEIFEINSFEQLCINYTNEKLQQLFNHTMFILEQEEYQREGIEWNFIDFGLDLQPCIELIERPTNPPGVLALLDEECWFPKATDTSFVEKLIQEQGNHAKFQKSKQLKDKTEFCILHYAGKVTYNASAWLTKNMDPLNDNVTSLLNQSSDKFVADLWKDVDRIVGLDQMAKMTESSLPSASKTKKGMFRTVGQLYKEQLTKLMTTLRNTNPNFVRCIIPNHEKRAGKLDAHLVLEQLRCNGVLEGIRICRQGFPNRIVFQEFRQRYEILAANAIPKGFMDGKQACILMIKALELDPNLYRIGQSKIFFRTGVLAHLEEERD

This assay concerns the target T1, chicken gizzard smooth muscle myosin subfragment-1 chemically crosslinked to cardiac or skeletal actin (Gallus gallus, UniProt P10587).
T1 construct: chicken gizzard smooth muscle myosin subfragment-1; from tissue; host or cells: chicken gizzard
The assay can be described thus: Smooth muscle myosin ATPase dose response assay (pyruvate kinase/horseradish peroxidase/pyruvate oxidase-coupled, amplex red fluorescence). The settings on record: read-out: IC50 Arithmetic Mean. It counts as biochemical. The essentials:
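Lead-optimization format: ATPase coupled via pyruvate kinase, pyruvate oxidase and peroxidase, pH 7.00 at 22° C, with 0.15 mM ATP, 100 mM KCl, 2 mM MgCl2, 2 mM phosphate and 0.1 mM amplex red (final). Crosslinked S1 titrated empirically for set hydrolysis rate; fluorescence (ex 480/em 615 nm) dose curves fit 4-parameter for IC50.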
On to `N#Cc1ccccc1-c1ccc(C(=O)NC[C@H]2CCCN2CCN)c(NCCc2cccc(F)c2)n1` [N-{[(2R)-1-(2-aminoethyl)pyrrolidin-2-yl]methyl}(6-(2-cyanophenyl)-2-{[2-(3-fluorophenyl)ethyl]amino}(3-pyridyl))carboxamide], for which the IC50 (usually the midpoint of a concentration-inhibition curve) was 705 nM. For `Cn1cc(-c2nc(NCCc3cccc(F)c3)c(C(=O)NC[C@H]3CCN3C(=O)C(C)(C)O)cc2F)cn1` [N-{[(2R)-1-(2-hydroxy-2-methylpropanoyl)azetidin-2-yl]methyl}(5-fluoro-2-{[2-(3-fluorophenyl)ethyl]amino}-6-(1-methylpyrazol-4-yl)(3-pyridyl))carboxamide] the value was 141 nM; for `O=C(NC[C@H]1CCN1C(=O)CO)c1ccc(-c2ccc(CO)s2)nc1NCCc1cccc(F)c1` [N-{[(2R)-1-(2-hydroxyacetyl)azetidin-2-yl]methyl}(2-{[2-(3-fluorophenyl)ethyl]amino}-6-[5-(hydroxymethyl)(2-thienyl)](3-pyridyl))carboxamide], 2540 nM; for `O=C(NC[C@H]1CCN1C(=O)CO)c1ccc(-c2cn[nH]c2)nc1NCCc1cccc(F)c1` [N-{[(2R)-1-(2-hydroxyacetyl)azetidin-2-yl]methyl}(2-{[2-(3-fluorophenyl)ethyl]amino}-6-pyrazol-4-yl(3-pyridyl))carboxamide], 559 nM. For `Cn1cc(-c2nc(NCCc3cccc(F)c3)c(C(=O)NC[C@H]3CCN3C(=O)CO)cc2F)cn1` [N-{[(2R)-1-(2-hydroxyacetyl)azetidin-2-yl]methyl}(5-fluoro-2-{[2-(3-fluorophenyl)ethyl]amino}-6-(1-methylpyrazol-4-yl)(3-pyridyl))carboxamide] the value was 47 nM; for `O=C(NC[C@H]1CCN1C(=O)CO)c1cc(F)c(-c2cn[nH]c2)nc1NCCc1cccc(F)c1` [N-{[(2R)-1-(2-hydroxyacetyl)azetidin-2-yl]methyl}(5-fluoro-2-{[2-(3-fluorophenyl)ethyl]amino}-6-pyrazol-4-yl(3-pyridyl))carboxamide], 46 nM.

As for `N#Cc1ccccc1-c1ccc(C(=O)NC[C@H]2CCN2C(=O)CO)c(NCCc2cccc(F)c2)n1` [N-{[(2R)-1-(2-hydroxyacetyl)azetidin-2-yl]methyl}(6-(2-cyanophenyl)-2-{[2-(3-fluorophenyl)ethyl]amino}(3-pyridyl))carboxamide], the IC50 stood at 40 nM. For `Cn1cc(-c2ccc(C(=O)NC[C@H]3CCCN3C(=O)CO)c(NCCc3cccc(F)c3)n2)cn1` [N-{[(2R)-1-(2-hydroxyacetyl)pyrrolidin-2-yl]methyl}(2-{[2-(3-fluorophenyl)ethyl]amino}-6-(1-methylpyrazol-4-yl)(3-pyridyl))carboxamide], the IC50 came out at 1780 nM. Turning to `O=C(NC[C@H]1CCCN1C(=O)CO)c1ccc(-c2cn[nH]c2)nc1NCCc1cccc(F)c1` [N-{[(2R)-1-(2-hydroxyacetyl)pyrrolidin-2-yl]methyl}(2-{[2-(3-fluorophenyl)ethyl]amino}-6-pyrazol-4-yl(3-pyridyl))carboxamide], the IC50 was 1190 nM.

Turning to `N#Cc1ccccc1-c1ccc(C(=O)NC[C@H]2CCCN2C(=O)CO)c(NCCc2cccc(F)c2)n1` [N-{[(2R)-1-(2-hydroxyacetyl)pyrrolidin-2-yl]methyl}(6-(2-cyanophenyl)-2-{[2-(3-fluorophenyl)ethyl]amino}(3-pyridyl))carboxamide], the IC50 turned out to be 116 nM.

Consider `N#Cc1ccccc1-c1ccc(C(=O)NC[C@H]2CCCCN2C(=O)CCN)c(NCCc2cccc(F)c2)n1` [N-{[(2R)-1-(3-aminopropanoyl)(2-piperidyl)]methyl}(6-(2-cyanophenyl)-2-{[2-(3-fluorophenyl)ethyl]amino}(3-pyridyl))carboxamide], for which the IC50 amounted to 155 nM. For `N#Cc1ccccc1-c1ccc(C(=O)NC[C@H]2CCN2C(=O)CCN)c(NCCc2cccc(F)c2)n1` [N-{[(2R)-1-(3-aminopropanoyl)azetidin-2-yl]methyl}(6-(2-cyanophenyl)-2-{[2-(3-fluorophenyl)ethyl]amino}(3-pyridyl))carboxamide] the value was 45 nM. For `N#Cc1ccccc1-c1ccc(C(=O)NC[C@H]2CNCCN2C(=O)CCN)c(NCCc2cccc(F)c2)n1` [N-{[(2R)-1-(3-aminopropanoyl)piperazin-2-yl]methyl}(6-(2-cyanophenyl)-2-{[2-(3-fluorophenyl)ethyl]amino}(3-pyridyl))carboxamide], the half-inhibitory concentration (IC50) was determined as 4890 nM. Turning to `Cn1cc(-c2ccc(C(=O)NC[C@H]3CCCN3C(=O)CCN)c(NCCc3cccc(F)c3)n2)cn1` [N-{[(2R)-1-(3-aminopropanoyl)pyrrolidin-2-yl]methyl}(2-{[2-(3-fluorophenyl)ethyl]amino}-6-(1-methylpyrazol-4-yl)(3-pyridyl))carboxamide], the IC50 is 587 nM. As to `Cn1cc(-c2nc(NCCc3cccc(F)c3)c(C(=O)NC[C@H]3CCCN3C(=O)CCN)cc2F)cn1` [N-{[(2R)-1-(3-aminopropanoyl)pyrrolidin-2-yl]methyl}(5-fluoro-2-{[2-(3-fluorophenyl)ethyl]amino}-6-(1-methylpyrazol-4-yl)(3-pyridyl))carboxamide], the IC50 worked out at 70 nM. The same measure for `NCCC(=O)N1CCC[C@@H]1CNC(=O)c1cc(F)c(-c2cn[nH]c2)nc1NCCc1cccc(F)c1` [N-{[(2R)-1-(3-aminopropanoyl)pyrrolidin-2-yl]methyl}(5-fluoro-2-{[2-(3-fluorophenyl)ethyl]amino}-6-pyrazol-4-yl(3-pyridyl))carboxamide]: 90 nM. For `N#Cc1ccccc1-c1ccc(C(=O)NC[C@H]2CCCN2C(=O)CCN)c(NCCc2cccc(F)c2)n1` [N-{[(2R)-1-(3-aminopropanoyl)pyrrolidin-2-yl]methyl}(6-(2-cyanophenyl)-2-{[2-(3-fluorophenyl)ethyl]amino}(3-pyridyl))carboxamide] the value was 47 nM.

For `N#Cc1ccccc1-c1nc(NCCc2cccc(F)c2)c(C(=O)NC[C@H]2CCCN2C(=O)CCN)cc1F` [N-{[(2R)-1-(3-aminopropanoyl)pyrrolidin-2-yl]methyl}(6-(2-cyanophenyl)-5-fluoro-2-{[2-(3-fluorophenyl)ethyl]amino}(3-pyridyl))carboxamide], the IC50 stood at 42 nM. Regarding `Cc1cc(C(=O)NC[C@H]2CCC(=O)N2CCCN)c(NCCc2cccc(F)c2)nc1-c1cnn(C)c1` [N-{[(2R)-1-(3-aminopropyl)-5-oxopyrrolidin-2-yl]methyl}(2-{[2-(3-fluorophenyl)ethyl]amino}-5-methyl-6-(1-methylpyrazol-4-yl)(3-pyridyl))carboxamide], the IC50 was determined as 577 nM. For `Cn1cc(-c2ccc(C(=O)NC[C@H]3CCC(=O)N3CCCN)c(NCCc3cccc(F)c3)n2)cn1` [N-{[(2R)-1-(3-aminopropyl)-5-oxopyrrolidin-2-yl]methyl}(2-{[2-(3-fluorophenyl)ethyl]amino}-6-(1-methylpyrazol-4-yl)(3-pyridyl))carboxamide], the IC50 worked out at 290 nM. The same measure for `NCCCN1C(=O)CC[C@@H]1CNC(=O)c1ccc(-c2cn[nH]c2)nc1NCCc1cccc(F)c1` [N-{[(2R)-1-(3-aminopropyl)-5-oxopyrrolidin-2-yl]methyl}(2-{[2-(3-fluorophenyl)ethyl]amino}-6-pyrazol-4-yl(3-pyridyl))carboxamide]: 966 nM; for `Cn1cc(-c2nc(NCCc3cccc(F)c3)c(C(=O)NC[C@H]3CCC(=O)N3CCCN)cc2Cl)cn1` [N-{[(2R)-1-(3-aminopropyl)-5-oxopyrrolidin-2-yl]methyl}(5-chloro-2-{[2-(3-fluorophenyl)ethyl]amino}-6-(1-methylpyrazol-4-yl)(3-pyridyl))carboxamide]: 160 nM.
